ChEMBL document CHEMBL5257028, “Recent advances in the discovery of heparanase inhibitors as anti-cancer agents” (Eur J Med Chem, 2016)
One block for each compound: values may come before it.

Columns and labels:
[1] = system: B16-F10; test: Antimigratory activity against mouse B16-F10 cells assessed as inhibition on cell migration
[2] = Anti-angiogenic activity in human endothelial cells assessed as reduction in cell growth incubated for 11 days by PECAM-1 staining based image analysis; details: 264 h
[3] = target: T1, P-selectin (Mus musculus, UniProt Q01102); test: Inhibition of mouse P-selectin assessed as inhibition of adhesion to human LS180 cells to immobilized P-selectin incubated for 1 hrs by ELISA; type: cell-based
T1 sequence (Q01102 whole entry): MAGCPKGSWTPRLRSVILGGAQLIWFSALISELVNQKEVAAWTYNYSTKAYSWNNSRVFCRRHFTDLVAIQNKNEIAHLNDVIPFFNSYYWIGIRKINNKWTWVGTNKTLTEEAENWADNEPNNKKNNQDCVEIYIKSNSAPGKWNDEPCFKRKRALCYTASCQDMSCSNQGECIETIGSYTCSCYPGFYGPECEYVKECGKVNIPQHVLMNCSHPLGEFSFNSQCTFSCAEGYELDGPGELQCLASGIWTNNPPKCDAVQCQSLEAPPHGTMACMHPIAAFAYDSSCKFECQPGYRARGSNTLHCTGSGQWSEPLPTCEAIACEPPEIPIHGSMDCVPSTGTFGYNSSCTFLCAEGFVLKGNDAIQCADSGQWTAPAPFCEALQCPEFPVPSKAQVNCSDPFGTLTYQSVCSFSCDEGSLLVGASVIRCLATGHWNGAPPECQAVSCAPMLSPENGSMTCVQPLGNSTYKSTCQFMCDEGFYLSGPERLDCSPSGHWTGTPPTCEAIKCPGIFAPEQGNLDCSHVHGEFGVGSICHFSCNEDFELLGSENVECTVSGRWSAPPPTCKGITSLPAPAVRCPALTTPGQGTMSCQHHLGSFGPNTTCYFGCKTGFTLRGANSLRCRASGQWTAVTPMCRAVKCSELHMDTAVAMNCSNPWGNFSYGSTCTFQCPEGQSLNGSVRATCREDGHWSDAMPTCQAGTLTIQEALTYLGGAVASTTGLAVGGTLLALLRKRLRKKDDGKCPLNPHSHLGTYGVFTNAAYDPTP

[4] = target: T2, Heparanase (Homo sapiens) (UniProt Q9Y251); test: Inhibition of recombinant human heparanase at 5 ug/ml incubated for 4 hrs by beta-scintillation counter analysis relative to control; details: dose 5.0 µg/ml
T2 sequence (whole entry): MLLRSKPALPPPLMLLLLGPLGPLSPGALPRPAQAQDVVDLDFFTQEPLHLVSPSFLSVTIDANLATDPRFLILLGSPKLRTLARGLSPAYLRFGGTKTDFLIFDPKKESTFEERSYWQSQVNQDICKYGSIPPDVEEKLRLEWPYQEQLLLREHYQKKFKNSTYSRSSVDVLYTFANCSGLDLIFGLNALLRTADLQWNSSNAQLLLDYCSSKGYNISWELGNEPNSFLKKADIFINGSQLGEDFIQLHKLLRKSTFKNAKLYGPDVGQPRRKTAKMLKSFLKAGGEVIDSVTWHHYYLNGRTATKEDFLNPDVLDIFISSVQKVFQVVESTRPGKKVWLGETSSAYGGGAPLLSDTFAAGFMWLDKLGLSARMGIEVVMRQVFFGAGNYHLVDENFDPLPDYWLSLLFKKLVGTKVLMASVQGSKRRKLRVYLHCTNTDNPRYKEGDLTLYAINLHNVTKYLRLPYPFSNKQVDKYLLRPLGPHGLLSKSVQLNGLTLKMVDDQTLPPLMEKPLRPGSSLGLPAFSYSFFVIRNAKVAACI

[5] = system: HeLa; test: Cytotoxicity against human HeLa cells assessed as growth inhibition; type: functional, cell-based
[6] = Half life in mouse; type: ADME, organism-based; details: in vivo

- IC50 [1]: 30 µM
SMILES: CCCCCCCCCCCCCCCc1c(O[C@H]2O[C@H](C(=O)OC)[C@@H](O)[C@H](O)[C@H]2O)ccc(O)c1C(=O)Oc1cc(C)c(C(=O)O)c(O)c1

- IC50 [1]: 15 µM
SMILES: CCCCCCCCCCCCCCCc1c(O[C@H]2O[C@H](C(=O)O)[C@@H](O)[C@H](O)[C@H]2O)ccc(O)c1C(=O)Oc1cc(C)c(C(=O)O)c(O)c1

- half-life [6]: 30 min
SMILES: O=C(O)Cc1nc(-c2ccc(-c3ccc(NC(=O)/C=C/c4ccc(Br)cc4)cc3Cl)o2)cs1
- IC50 [2]: 1 µM

More lines, now with the values behind:

SMILES: O=C(O)Cc1ccc2oc(-c3ccc(/C=C/C(=O)Nc4ccc(Cl)cc4Cl)cc3F)nc2c1
- IC50 [2]: 2 µM

SMILES: O=S(=O)(O)OC[C@@H]1O[C@@H](O[C@@H]2[C@@H](OS(=O)(=O)O)[C@H](OS(=O)(=O)O)C(C3O[C@H](COS(=O)(=O)O)[C@@H](O[C@H]4O[C@H](COS(=O)(=O)O)[C@@H](O[C@H]5O[C@H](COS(=O)(=O)O)[C@@H](OS(=O)(=O)O)[C@H](OS(=O)(=O)O)[C@H]5OS(=O)(=O)O)[C@H](OS(=O)(=O)O)[C@H]4OS(=O)(=O)O)[C@H](OS(=O)(=O)O)[C@H]3OS(=O)(=O)O)O[C@H]2COS(=O)(=O)O)[C@@H](OS(=O)(=O)O)[C@H](OS(=O)(=O)O)[C@H]1O[C@@H]1O[C@@H](COS(=O)(=O)O)[C@H](OS(=O)(=O)O)[C@@H](OS(=O)(=O)O)[C@@H]1OS(=O)(=O)O (stereo in doubt; form 1) [listing 1 of 2 here]
- IC50 [3]: 58.2 µM

SMILES: O=C(O)c1ccc2c(c1)C(=O)N(c1cccc(-c3nc4ccccc4o3)c1)C2=O
- IC50 [2]: 40 µM

SMILES: CCCNc1ccc(N2C(=O)c3ccc(C(=O)O)cc3C2=O)cc1-c1nc2cc(-c3ccc(Br)cc3)ccc2o1
- IC50 [2]: 0.25 µM

SMILES: COc1ccc(N2C(=O)c3ccc(C(=O)O)cc3C2=O)cc1-c1nc2cc(-c3ccc4c(c3)OCO4)ccc2o1
- IC50 [2]: 3 µM

SMILES: O=S(=O)(O)OC[C@@H]1O[C@@H](O[C@@H]2[C@@H](OS(=O)(=O)O)[C@H](OS(=O)(=O)O)C(C3O[C@H](COS(=O)(=O)O)[C@@H](O[C@H]4O[C@H](COS(=O)(=O)O)[C@@H](O[C@H]5O[C@H](COS(=O)(=O)O)[C@@H](OS(=O)(=O)O)[C@H](OS(=O)(=O)O)[C@H]5OS(=O)(=O)O)[C@H](OS(=O)(=O)O)[C@H]4OS(=O)(=O)O)[C@H](OS(=O)(=O)O)[C@H]3OS(=O)(=O)O)O[C@H]2COS(=O)(=O)O)[C@@H](OS(=O)(=O)O)[C@H](OS(=O)(=O)O)[C@H]1O[C@@H]1O[C@@H](COS(=O)(=O)O)[C@H](OS(=O)(=O)O)[C@@H](OS(=O)(=O)O)[C@@H]1OS(=O)(=O)O (stereo in doubt; form 2)
- inhibition [4]: 58%

SMILES: COc1ccc(C2CNC(c3ccccc3F)OC23CCCCC3)cc1 (configuration not stated)
- IC50 [5]: 48.2 µM

SMILES: O=S(=O)(O)OC[C@@H]1O[C@@H](O[C@@H]2[C@@H](OS(=O)(=O)O)[C@H](OS(=O)(=O)O)C(C3O[C@H](COS(=O)(=O)O)[C@@H](O[C@H]4O[C@H](COS(=O)(=O)O)[C@@H](O[C@H]5O[C@H](COS(=O)(=O)O)[C@@H](OS(=O)(=O)O)[C@H](OS(=O)(=O)O)[C@H]5OS(=O)(=O)O)[C@H](OS(=O)(=O)O)[C@H]4OS(=O)(=O)O)[C@H](OS(=O)(=O)O)[C@H]3OS(=O)(=O)O)O[C@H]2COS(=O)(=O)O)[C@@H](OS(=O)(=O)O)[C@H](OS(=O)(=O)O)[C@H]1O[C@@H]1O[C@@H](COS(=O)(=O)O)[C@H](OS(=O)(=O)O)[C@@H](OS(=O)(=O)O)[C@@H]1OS(=O)(=O)O (stereo in doubt; form 1) [listing 2 of 2 here]
- inhibition [4]: 85%
